Measurements: ChEMBL document CHEMBL1949629, “Discovery of a second generation agonist of the orphan G-protein coupled receptor GPR119 with an improved profile” (Bioorg Med Chem Lett, 2012)
Values after ≈ are worked out from the molar mass of the structure shown.

How the values were obtained:
[1] = Solubility in 20% HPbetaCD after 24 hrs; type: physicochemical
[2] = Solubility in 40% HPbetaCD after 24 hrs; type: physicochemical
[3] = Half life cynomolgus monkey at 25 to 400 mg administered once daily; type: ADME, organism-based, Macaca fascicularis; conditions: in vivo
[4] = Clearance in iv dosed Swiss albino mouse; type: ADME, organism-based; conditions: in vivo
[5] = Clearance in iv dosed Sprague-Dawley rat; type: ADME, organism-based; conditions: in vivo
[6] = Clearance in iv dosed Zucker fa/fa rat; type: ADME, organism-based; conditions: in vivo
[7] = Clearance in iv dosed Beagle dog; type: ADME, organism-based, Canis lupus familiaris; conditions: in vivo
[8] = Clearance in iv dosed Cynomolgus monkey; type: ADME, organism-based, Macaca fascicularis; conditions: in vivo

solubility at 24 h [1] [mg/mL]	Structure (SMILES)	other results
17 (≈ 35.8 mM)	Cc1nc(S(C)(=O)=O)ccc1Nc1ncnc(OC2CCN(C(=O)OC(C)C)CC2)c1C#N	–
15.9 (≈ 41.1 mM)	Cc1ncccc1Oc1ncnc(OC2CCN(C(=O)OC(C)C)CC2)c1C	solubility at 24 h [2]: 15.9 mg/mL (≈ 41.1 mM)
–	CC(CO)OC(=O)N1CCC(Oc2ncnc3c2cnn3-c2ccc(S(C)(=O)=O)cc2F)CC1 (stereo unspecified)	half-life [3]: 41 h
5.1 (≈ 13.1 mM)	Cc1c(Oc2cncc(F)c2)ncnc1OC1CCN(C(=O)OC(C)C)CC1	–
24.5 (≈ 51.3 mM)	CCc1c(Nc2ccc(S(C)(=O)=O)nc2C)ncnc1OC1CCN(C(=O)OC(C)C)CC1	–
3.3 (≈ 6.69 mM)	CCOc1c(Nc2ccc(S(C)(=O)=O)nc2C)ncnc1OC1CCN(C(=O)OC(C)C)CC1	–
17.7 (≈ 36.2 mM)	Cc1nc(S(C)(=O)=O)ccc1Nc1ncnc(OC2CCN(C(=O)OC(C)C)CC2)c1C1CC1	–
–	CC(C)OC(=O)N1CCC(Oc2ncnc3c2cnn3-c2ccc(S(C)(=O)=O)cc2F)CC1	clearance [4]: 3.83 mL/min/kg; clearance [5]: 20 mL/min/kg; clearance [6]: 7.33 mL/min/kg; clearance [7]: 2 mL/min/kg; clearance [8]: 1.83 mL/min/kg
21.3 (≈ 47.4 mM)	Cc1c(Nc2ccc(S(C)(=O)=O)nc2)ncnc1OC1CCN(C(=O)OC(C)C)CC1	–
–	Cc1ncccc1Nc1ncnc(OC2CCN(C(=O)OC(C)C)CC2)c1C	solubility at 24 h [2]: 7.7 mg/mL (≈ 20 mM)
17.3 (≈ 34.6 mM)	Cc1nc(S(C)(=O)=O)ccc1Nc1ncnc(OC2CCN(C(=O)OC(C)C)CC2)c1C(F)F	–
